Source: US12365643B2, “Phenoxy carboxylic acid compounds and medical uses thereof” (QINGDAO RISING BIOTECHNOLOGY CO., LTD, priority 2018, dated 2025)

What was measured:
[1] = tested on: ACOX1; experiment: ACOX1 mRNA expression by real-time quantitative PCR in HepG2; type: cell-based, human; conditions: 1 μM, 6 hours, HepG2 (FIG. 5D)
Source text: (§1) Peroxisome proliferation factor activated receptor (PPAR) is an important nuclear receptor that regulates glycolipid metabolism, including three subtypes: α, β/δ and γ. Peroxisome proliferator-activated receptor γ coactivator 1α (PGC-1α) is its auxiliary transcriptional activator. Acyl-CoA oxidase 1 (ACOX1) is the first rate-limiting enzyme for fatty acid β oxidation. Fatty acid binding protein 1 (FABP1) is highly expressed in liver, and can bind fatty acid, heme and other molecules to reduce their toxicity and damage. Up-regulating the expression level of these genes helps to improve the body's metabolism, and their agonists are an important class of anti-metabolic drugs. After the compound of the present application (1 μM) and the control drug gemfibrozil (1 μM) were incubated with human liver cancer cells HepG2 for 6 hours, real-time fluorescent quantitative PCR method was used to determine the relative expression of mRNA of related genes in the cells.
(§2) The company which synthesized the primers was Suzhou Hongxun Biotechnology Co., Ltd. Tranzol reagent (Tranzol total RNA extraction reagent, TransGen Biotech) was used to extract total RNA from tissues. 5× All-In-One RT MasterMix reverse transcription kit (Abcam, USA) and real-time quantitative PCR Master Mix (Aidlab Biotechnologies Co., Ltd) were used. Bio-Rad CFX Connect™ Real-Time PCR Detection System for qPCR was used, and 2^−ΔΔCT method was used for data analysis. The expression level of mRNA in the normal control group was set to 1, and the relative expression level of mRNA in the administration group was calculated, so as to confirm whether the active compound affected the PPAR pathway, thereby further regulating lipid metabolism.

[2] = tested on: phosphorylated GSK3β; experiment: Phosphorylated GSK3β level by Western blotting in HepG2; type: cell-based, human; conditions: 1 μM, 24 hours, HepG2, Western blotting (FIG. 6B)
Source text: (§3) Carnitine palmitoyltransferase (CPT1α) is a rate-limiting enzyme of fatty acid oxidation. When the body or tissues are lacking in energy, CPT1α catalyzes the entry of fatty acids into mitochondria for […], and at the same time, CPT1α is also involved in the regulation of fatty acid-induced insulin resistance and inflammation. Protein kinase B/glycogen synthase kinase 3β (AKT/GSK3β) signaling pathway and insulin receptor substrate 1 (IRS-1) are key signaling pathways that regulate glucose metabolism in response to insulin signal. Therefore, by determining the effects of compounds on the CPT1α protein level and the AKT, GSK3β and IRS-1 protein phosphorylation levels, it is possible to evaluate the regulatory effects of the compounds on glycolipid metabolism.
(§4) After human liver cancer cells HepG2 were incubated with the compound of the present application or the control drug at 1 μM for 24 hours, the CPT1α protein level and the AKT, GSK3β and IRS-1 phosphorylated protein levels in the cells were determined by Western blotting; after gray-scale scanning by using Image J15.0.1, normalization was performed by using β-tubulin protein level as internal control, and the quantitative analysis results were shown in FIG. 6.

[3] = tested on: RAW264.7 mouse macrophages; experiment: Determination of NO generation induced by LPS; type: cell-based; conditions: 10 μM, 1 μg/mL LPS, 24 hours, RAW264.7 (FIG. 2)
Description: The results are expressed as the multiple of the NO content in the cell culture supernatant of the administration group (10 μM) as compared with that in the cell culture supernatant of the control group (DMSO group), in which compared with the control group, *P<0.05, **P<0.01, ***P<0.001.
NO is a reactive nitrogen species (RNS) and an important gas signal molecule. Macrophages could convert arginine into NO which participated in the body's inflammatory response. Therefore, determination of inhibitory activity of a drug on NO generation was one of the classic methods to evaluate drug's anti-inflammatory ability. RAW264.7 cells at exponential growth phase were inoculated into a 96-well plate at 1×10^4 cells/200 μL. well of medium. After adherence, the medium was discarded, and the cells were subjected to drug treatments. Normal group (serum-free medium), LPS model group (serum-free medium containing 1 μg/mL LPS), LPS+drug group (serum-free medium containing 1 μg/mL LPS, 10 μM gemfibrozil or the compound of the present application) were established, and 3 repeated wells were set for each group. After 24 hours incubation in incubator, cell supernatant of each well was collected and assay was performed according to the instructions of NO determination kit (Nanjing Jiancheng). The absorbance value of each well at wavelength of 540 nm was read and NO content was calculated.

[4] = tested on: phosphorylated IRS-1; experiment: Phosphorylated IRS-1 level by Western blotting in HepG2; type: cell-based, human; conditions: 1 μM, 24 hours, HepG2, Western blotting (FIG. 6C)
Source text: as §3, §4

[5] = tested on: PGC1α; experiment: PGC1α mRNA expression by real-time quantitative PCR in HepG2; type: cell-based, human; conditions: 1 μM, 6 hours, HepG2 (FIG. 5C)
Source text: as §1, §2

[6] = tested on: CPT1α; experiment: CPT1α protein level by Western blotting in HepG2; type: cell-based, human; conditions: 1 μM, 24 hours, HepG2, Western blotting (FIG. 6A)
Source text: as §3, §4

[7] = tested on: antioxidant response element (ARE); experiment: ARE luciferase reporter gene activity in HepG2 cells; type: cell-based, human; conditions: 50 μM, HepG2 stably transfected (FIG. 4)
Description: (§5) NF-κB was the most important inflammatory signal pathway. SW480 human colon cancer cells stably transfected with a luciferase reporter gene driven by NF-κB were used to determine the effects of the compound of the present application and the control drug gemfibrozil on NF-κB transcriptional activity, which comprised the following steps. • (1) Cells stably transfected with NF-κB Luc were cultivated to exponential growth, inoculated at a culture medium concentration of 1×10^5/[…] in a 24-well plate, and cultured for 24 hours, the medium was discarded, and the test compound or gemfibrozil formulated with serum-free medium at 50 μM were added to the 24-well plate and incubation was continued for 6 hours. After washing once with 200 μL of PBS, 100 μL of reporter gene cell lysis buffer was added, the cells were lysed on ice for 10 minutes, and the cell lysate was collected by pipetting. • (2) After centrifugation was performed at 8000 rpm and 4° C. for 10 min, the supernatant was pipetted for fluorescence assay. • (3) The measurement gap time of chemiluminescence analyzer was set to 2 s and the measurement time was set to 10 s. Automatic sample injection was adopted, 50 μL of luciferase assay reagent was added to each well. The reporter gene cell lysis buffer was used as a blank control. • (4) After centrifugation, the supernatant was taken, and the BCA method was used to determine the protein concentration so as to normalize the reporter gene results.
In this experimental example, the luciferase activity in HepG2 human liver cancer cells stably transfected with a luciferase reporter gene driven by antioxidant response element (ARE) was determined to evaluate the regulatory effects of the compound of the present application and gemfibrozil on the transcriptional activity of transcription factor Nrf2 and the cellular oxidative stress response signals, in which the operation process of the reporter gene assay was the same as that of Experimental Example 2.2.

[8] = tested on: NF-κB; experiment: NF-κB luciferase reporter gene transcriptional activity in SW480 cells; type: cell-based, human; conditions: 50 μM, 6 hours, SW480 stably transfected (FIG. 3)
Description: as §5

[9] = tested on: PPARγ; experiment: PPARγ mRNA expression by real-time quantitative PCR in HepG2; type: cell-based, human; conditions: 1 μM, 6 hours, HepG2 (FIG. 5B)
Source text: as §1, §2

SMILES | ACOX1 mRNA expression [1] | phosphorylation level of GSK3β [2] | NO generation induced by LPS [3] | phosphorylation level of IRS-1 [4] | PGC1α mRNA expression [5] | CPT1α protein level [6] | ARE reporter gene activity [7] | activity of NF-κB reporter gene [8] | PPARγ mRNA expression [9]
Cc1cc(Br)c(C)c(Br)c1OCCCC(C)(C)C(=O)O [BJMU-109, 5-(2,4-dibromo-3,6-dimethylphenoxy)-2,2-dimethylpentanoic acid] | significantly induced ACOX1 mRNA expression | significantly increased the phosphorylation level of GSK3β | could inhibit NO generation | significantly increased the phosphorylation level of IRS-1 |  |  |  |  | 
Cc1cc(Br)c(C)c(C)c1OCCCC(C)(C)C(=O)O [BJMU-409, 5-(4-bromo-2,3,6-trimethylphenoxy)-2,2-dimethylpentanoic acid] | significantly induced ACOX1 mRNA expression | significantly increased the phosphorylation level of GSK3β |  | significantly increased the phosphorylation level of IRS-1 | significantly induced PGC1α mRNA expression | significantly increased CPT1α protein level | could significantly activate the ARE reporter gene activity |  | 
Cc1ccc(C)c(OCCCC(C)(C)C(=O)O)c1Br [BJMU-404, 5-(2-bromo-3,6-dimethylphenoxy)-2,2-dimethylpentanoic acid] | significantly induced ACOX1 mRNA expression | significantly increased the phosphorylation level of GSK3β |  | significantly increased the phosphorylation level of IRS-1 |  | significantly increased CPT1α protein level | could significantly activate the ARE reporter gene activity | could significantly inhibit the activity of NF-κB reporter gene | 
Cc1cc(F)c(C)c(OCCCC(C)(C)C(=O)O)c1 [BJMU-213, 5-(3-fluoro-2,5-dimethylphenoxy)-2,2-dimethylpentanoic acid] |  | significantly increased the phosphorylation level of GSK3β |  | significantly increased the phosphorylation level of IRS-1 |  | significantly increased CPT1α protein level |  |  | 
Cc1cc(OCCCC(C)(C)C(=O)O)c(CO)cc1Br [BJMU-502, 5-(4-bromo-2-(hydroxymethyl)-5-methylphenoxy)-2,2-dimethylpentanoic acid] | significantly induced ACOX1 mRNA expression |  | could inhibit NO generation | significantly increased the phosphorylation level of IRS-1 | significantly induced PGC1α mRNA expression | significantly increased CPT1α protein level | could significantly activate the ARE reporter gene activity |  | significantly induced PPARγ mRNA expression
